# Reference: US8748700B2, “Control of AAD-1 monocot volunteers in fields of dicot crops” (Dow AgroSciences, LLC., priority 2009, dated 2014)
# Assays:
# [1] = tested on: Transgenic Hi-II maize plants containing the AAD-1 and PAT expression cassette (3404); test: Post-emergent herbicide application on transgenic maize containing AAD-1 and PAT (pDAB3404), visual injury assessment; assay type: in vivo; details: for Tolerance (−/+) 3404: 3404 = molecular stack of AAD-1 and PAT crossed with CP4 for glyphosate tolerance, V1-V3 stage, 1x Field Rate, visual injury after 14 days; for injury: WT and 3404 not distinguished; for Comment (activity in words): applies to both WT and AAD-1 plants
# Protocol: Seed were planted into Metro Mix Media (Sun Gro Horticulture Inc., Bellevue, Wash.) and subirrigated with Hoagland's solution until wet, then allowed to gravity drain. Pots were placed in a glasshouse environment set to 27° C. until the germinated plants reached the V1-V3 growth stage. At or about, the V1-V3 growth stage, the maize plants were spayed using a track sprayer and a drop down nozzle calibrated to deliver a187 L/ha solution of herbicide at the 1× Field Rate (Table 7). After treatment the plants were placed in the greenhouse and scored via visual injury assessment after 14 days.
# [2] = tested on: volunteer conventional or transgenic maize lines; test: Control of volunteer maize in a field planted with AAD-maize using alternative herbicides (Table 6, herbicide options); assay type: in vivo; details: for Herbicides option - Burndown/PRE: planted: any AAD-1 hybrid of the table
# From the text: In an embodiment, volunteer transgenic maize lines (containing the Clear Field trait, Roundup Ready or other Glyphosate Tolerant Trait, Liberty Link Trait, Imidazolonine tolerant trait, or any stacked combination thereof) or volunteer conventional maize lines are controlled within a field of transgenic AAD maize (AAD-1) by the application of aryloxyphenoxypropionate herbicide (Fops) including, but not limited to; quizalofop, haloxyfop, fenoxaprop, fluazifop, et al., their stereospecific isomers or racemic mixtures, and esters, acid, or salts thereof. In addition, the Fops herbicide may be applied with another herbicide(s) to control the volunteer maize lines described above.
# The application of a given herbicide can be made before planting at pre-emergence/burndown or post-emergence after planting to control the volunteer conventional or transgenic maize lines. Table 6 lists the herbicides to be used at the different stages of planting (pre-emergence or post-emergence) to control volunteer conventional or transgenic maize. At or about a 1× Field Rate concentration of herbicide would be applied, as either a tank mix or alone, to the field for both pre-emergent and post-emergent volunteer control.
# The control of conventional maize plants or transgenic maize plants containing a herbicide tolerant expression cassette within a field of AAD transgenic maize (either stacked with other herbicide tolerant traits or alone) would be applicable for the control of a herbicide tolerant transgenic monocot plant (including, but not limited too; corn, rice, sugar cane, switch grass, turf grass species, sorghum, barley, wheat, and oats, and durum) within a field being planted with an AAD monocot crop (including, but not limited too; corn, rice, sugar cane, switch grass, turf grass species, sorghum, barley, wheat, and oats, and durum). The example described above, in which volunteer transgenic herbicide tolerant maize plants are controlled in a field planted with AAD transgenic maize, is illustrative of the invention and not intended to restrict the scope of this embodiment.
# [3] = volunteer: CL Corn, planted: AAD-1 + PAT + AHAS
# [4] = volunteer: CL Corn, planted: AAD-1 + PAT + GAT + ALS
# [5] = volunteer: CL Corn, planted: AAD-1 + PAT + GT
# [6] = volunteer: Conventional corn, planted: AAD-1 + PAT + AHAS
# [7] = volunteer: Conventional corn, planted: AAD-1 + PAT + GAT + ALS
# [8] = volunteer: Conventional corn, planted: AAD-1 + PAT + GT
# [9] = volunteer: RR or GT Corn (text printed beside the CL Corn lines r30-r36)
structure (smiles),measurement,setting,value
CCc1cnc(C2=NC(C)(C(C)C)C(=O)N2)c(C(=O)O)c1 (stereo not shown) [imazethapyr],Tolerance (−/+) 3404,[1],−/+
same,injury,[1]; @ 70 g ai/ha,Need higher than 70 g ai/ha rate (50% injury @
CCOC(=O)[C@@H](C)Oc1ccc(Oc2nc3ccc(Cl)cc3o2)cc1 [fenoxaprop-P-ethyl],Tolerance (−/+) 3404,[1],+
CCCCOC(=O)[C@@H](C)Oc1ccc(Oc2ccc(C(F)(F)F)cn2)cc1 [fluazifop-P-butyl],Tolerance (−/+) 3404,[1],+
COC(=O)[C@@H](C)Oc1ccc(Oc2ncc(C(F)(F)F)cc2Cl)cc1 [haloxyfop-methyl R],Tolerance (−/+) 3404,[1],+
O=C(O)CNCP(=O)(O)O [glyphosate],Herbicides option - POST,"[2]; volunteer: CL (or AHAS) + PAT, planted: AAD-1 + AHAS",glyphosate
same,Herbicides option - POST,"[2]; volunteer: CL (or AHAS) + PAT, planted: AAD-1 + GAT + ALS",glyphosate
same,Herbicides option - POST,"[2]; volunteer: CL (or AHAS) + PAT, planted: AAD-1 + GT",glyphosate
same,Herbicides option - POST,"[2]; volunteer: CL (or AHAS) + PAT, planted: AAD-1 + PAT + AHAS",glyphosate
same,Herbicides option - POST,"[2]; volunteer: CL (or AHAS) + PAT, planted: AAD-1 + PAT + GAT + ALS",glyphosate
same,Herbicides option - POST,"[2]; volunteer: CL (or AHAS) + PAT, planted: AAD-1 + PAT + GT",glyphosate
same,Herbicides option - POST,"[2]; volunteer: CL Corn, planted: AAD-1 + AHAS",glyphosate
same,Herbicides option - POST,"[2]; volunteer: CL Corn, planted: AAD-1 + GAT + ALS",glyphosate
same,Herbicides option - POST,"[2]; volunteer: CL Corn, planted: AAD-1 + GT",glyphosate
same,Herbicides option - POST,[2]; [3],glyphosate
same,Herbicides option - POST,[2]; [4],glyphosate
same,Herbicides option - POST,[2]; [5],glyphosate
same,Herbicides option - POST,"[2]; volunteer: Conventional corn, planted: AAD-1 + AHAS",glyphosate
same,Herbicides option - POST,"[2]; volunteer: Conventional corn, planted: AAD-1 + GAT + ALS",glyphosate
same,Herbicides option - POST,"[2]; volunteer: Conventional corn, planted: AAD-1 + GT",glyphosate
same,Herbicides option - POST,[2]; [6],glyphosate
same,Herbicides option - POST,[2]; [7],glyphosate
same,Herbicides option - POST,[2]; [8],glyphosate
same,Herbicides option - POST,"[2]; volunteer: LL Corn, planted: AAD-1 + AHAS",glyphosate
same,Herbicides option - POST,"[2]; volunteer: LL Corn, planted: AAD-1 + GAT + ALS",glyphosate
same,Herbicides option - POST,"[2]; volunteer: LL Corn, planted: AAD-1 + GT",glyphosate
same,Herbicides option - POST,"[2]; volunteer: LL Corn, planted: AAD-1 + PAT + AHAS",glyphosate
same,Herbicides option - POST,"[2]; volunteer: LL Corn, planted: AAD-1 + PAT + GAT + ALS",glyphosate
same,Herbicides option - POST,"[2]; volunteer: LL Corn, planted: AAD-1 + PAT + GT",glyphosate
CC(C)N.O=C(O)CNCP(=O)(O)O [glyphosate-isopropylammonium],Tolerance (−/+) 3404,[1],+
CC(C)C1(C)N=C(c2nc3ccccc3cc2C(=O)O)NC1=O (stereo not shown) [imazaquin],Tolerance (−/+) 3404,[1],−/+
same,injury,[1]; @ 50 g ai/ha,Need higher than 50 g ai/ha rate (50% injury @
CCO/N=C(\CC)C1=C(O)CC(c2c(C)cc(C)cc2C)CC1=O (stereo not shown) [tralkoxydim],Tolerance (−/+) 3404,[1],−
CCCCOC(=O)[C@@H](C)Oc1ccc(Oc2ccc(C#N)cc2F)cc1 [cyhalofop-butyl],Tolerance (−/+) 3404,[1],+
C[n+]1ccc(-c2cc[n+](C)cc2)cc1 [paraquat],Herbicides option - Burndown/PRE,[2]; volunteer: CL (or AHAS) + GT,paraquat
same,Herbicides option - Burndown/PRE,[2]; volunteer: CL (or AHAS) + PAT,paraquat
same,Herbicides option - Burndown/PRE,[2]; volunteer: CL Corn,paraquat
same,Herbicides option - Burndown/PRE,[2]; volunteer: Conventional corn,paraquat
same,Herbicides option - Burndown/PRE,[2]; volunteer: GAT + ALS + PAT,paraquat
same,Herbicides option - Burndown/PRE,[2]; volunteer: GAT + ALS,paraquat
same,Herbicides option - Burndown/PRE,[2]; volunteer: GT + CL (or AHAS) + PAT,paraquat
same,Herbicides option - Burndown/PRE,[2]; volunteer: GT + PAT,paraquat
same,Herbicides option - Burndown/PRE,[2]; volunteer: LL Corn,paraquat
same,Herbicides option - Burndown/PRE,[2]; [9],paraquat
CC(Oc1ccc(Oc2cnc3cc(Cl)ccc3n2)cc1)C(=O)O (stereo not shown) [quizalofop],Tolerance (−/+) 3404,[1],+
COC(=O)C(C)Oc1ccc(Oc2ccc(Cl)cc2Cl)cc1 (stereo not shown) [diclofop-methyl],Tolerance (−/+) 3404,[1],−
same,Comment (activity in words),[1],Not active on grasses
CCSC(C)CC1CC(=O)C(/C(CC)=N/OC/C=C/Cl)=C(O)C1 (stereo not shown) [clethodim],Tolerance (−/+) 3404,[1],−
CCc1cc(C)cc(CC)c1-c1c(OC(=O)C(C)(C)C)n2n(c1=O)CCOCC2 [pinoxaden],Tolerance (−/+) 3404,[1],+/−
same,Comment (activity in words),[1],Not active but small amt of control on both WT
CP(=O)(O)CCC(N)C(=O)O (stereo not shown) [glufosinate-ammonium],Tolerance (−/+) 3404,[1],+
C[C@@H](Oc1ccc(Oc2ncc(Cl)cc2F)cc1)C(=O)O [clodinafop],Tolerance (−/+) 3404,[1],+
CP(=O)(O)CCC(N)C(=O)O (stereo not shown) [glufosinate],Herbicides option - POST,"[2]; volunteer: CL (or AHAS) + GT, planted: AAD-1 + PAT",glufosinate
same,Herbicides option - POST,"[2]; volunteer: CL (or AHAS) + GT, planted: AAD-1 + PAT + AHAS",glufosinate
same,Herbicides option - POST,"[2]; volunteer: CL (or AHAS) + GT, planted: AAD-1 + PAT + GAT + ALS",glufosinate
same,Herbicides option - POST,"[2]; volunteer: CL (or AHAS) + GT, planted: AAD-1 + PAT + GT",glufosinate
same,Herbicides option - Burndown/PRE,[2]; volunteer: CL (or AHAS) + GT,glufosinate
same,Herbicides option - Burndown/PRE,[2]; volunteer: CL (or AHAS) + PAT,glufosinate
same,Herbicides option - POST,"[2]; volunteer: CL Corn, planted: AAD-1 + PAT",glufosinate
same,Herbicides option - POST,[2]; [3],glufosinate
same,Herbicides option - POST,[2]; [4],glufosinate
same,Herbicides option - POST,[2]; [5],glufosinate
same,Herbicides option - Burndown/PRE,[2]; volunteer: CL Corn,glufosinate
same,Herbicides option - POST,"[2]; volunteer: Conventional corn, planted: AAD-1 + PAT",glufosinate
same,Herbicides option - POST,[2]; [6],glufosinate
same,Herbicides option - POST,[2]; [7],glufosinate
same,Herbicides option - POST,[2]; [8],glufosinate
same,Herbicides option - Burndown/PRE,[2]; volunteer: Conventional corn,glufosinate
same,Herbicides option - POST,"[2]; volunteer: GAT + ALS, planted: AAD-1 + PAT",glufosinate
same,Herbicides option - POST,"[2]; volunteer: GAT + ALS, planted: AAD-1 + PAT + AHAS",glufosinate
same,Herbicides option - POST,"[2]; volunteer: GAT + ALS, planted: AAD-1 + PAT + GAT + ALS",glufosinate
same,Herbicides option - POST,"[2]; volunteer: GAT + ALS, planted: AAD-1 + PAT + GT",glufosinate
same,Herbicides option - Burndown/PRE,[2]; volunteer: GAT + ALS,glufosinate
same,Herbicides option - Burndown/PRE,[2]; [9],glufosinate
same,Herbicides option - POST,"[2]; volunteer: RR or GT Corn, planted: AAD-1 + PAT",glufosinate
same,Herbicides option - POST,"[2]; volunteer: RR or GT Corn, planted: AAD-1 + PAT + AHAS",glufosinate
same,Herbicides option - POST,"[2]; volunteer: RR or GT Corn, planted: AAD-1 + PAT + GAT + ALS",glufosinate
same,Herbicides option - POST,"[2]; volunteer: RR or GT Corn, planted: AAD-1 + PAT + GT",glufosinate
COCc1cnc(C2=NC(C)(C(C)C)C(=O)N2)c(C(=O)O)c1 (stereo not shown) [imazamox],Tolerance (−/+) 3404,[1],−
O=C(O)CNCP(=O)(O)O [Glyphosate],Herbicides option - Burndown/PRE,[2]; volunteer: CL (or AHAS) + PAT,Glyphosate
same,Herbicides option - Burndown/PRE,[2]; volunteer: CL Corn,Glyphosate
same,Herbicides option - Burndown/PRE,[2]; volunteer: Conventional corn,Glyphosate
same,Herbicides option - Burndown/PRE,[2]; volunteer: GAT + ALS,Glyphosate
same,Herbicides option - Burndown/PRE,[2]; volunteer: LL Corn,Glyphosate
CCC/C(=N\OCC)C1=C(O)CC(CC(C)SCC)CC1=O (stereo not shown) [sethoxydim],Tolerance (−/+) 3404,[1],−
